Experimental data from patent publication EP2135864A1, “5-(4-methanesulfonyl-phenyl)-thiazole derivatives for the treatment of acute and chronic inflammatory diseases” (FAES FARMA, S.A., priority 2008, dated 2009).

Columns and labels:
Format in all cases: cell-based, human
TNF-alpha = TNF-alpha production by PBMC of healthy volunteers, ELISA of culture supernatant; settings: 24 hours, median ± standard error, n=10
Experimental: In order to quantify the serum cytokines concentration, the extracted blood was stored in tubes both with and without anti-coagulant (collected by antecubital venopunction and arterial catheter, respectively). Blood was allowed to coagulate at room temperature in the laboratory, further separating the serum by centrifugation (600xg during 20 minutes). Supernatant were collected, filtered, divided in aliquotes and stored at -70°C. Concentration assays for different cytokines were performed by using the commercial kits described in Table 2. Table 2.- Commercial ELISA kits used in this study
Supernatants were unfrozen up to the room temperature and faced against the respective anti-cytokine by fixing them in the plate bottom and incubating them during a variable time. Subsequently, wash-outs were carried out and the substances recommended by the corresponding company were added in order to allow a colorimetric reaction, in a proportional manner to the amount of cytokine present in the supernatant. The results were assessed with the enzymo-immunoanalysis reader Multititer Plus (Tiertek Multiscan Plus, Flow Laboratories).
The analysis of the standard curves and subsequent interpolation was performed with the software Delta Soft II version 4.1 (Biometallics, Inc.) in an Apple Macintosh computer. Cytokine concentrations were converted to molar in order to calculate the molecular ratios of each case and the number of soluble molecules.
Effects of compound 12 on TNF-alpha production by PBMC of healthy volunteers in the presence or in the absence of LPS were first investigated. PBMC (5 x 10^4 cells/well, 200 µl) from 10 healthy volunteers were cultured in parallel in duplicate in tissue culture plates, 96 well, flat-bottom with low evaporation lid (353072 Falcon, Becton Dickinson labware, Franklin Lakes, USA, 07417-1886 NJ) in complete medium (RPMI-1640 with glutamine Cat BE-12-70F, Cambrex Biosciences, B4880 Verviers, Belgium), supplemented with phoetal bovine serum (origin USA, Gibco ref. 26140-079) and a solvent concentration of 10^-6 M alone or supplemented with 10^-6 M or 10^-7 M of compound 12, in the presence and in the absence of LPS (10microg/ml; E. coli LPS 0111:B4 strain InvivoGene, San Diego CA92121 USA) during 24 hours. Supernatant of cultures were frozen at -20°C and the concentration of TNF-alpha was quantified with ELISA species-specific (enzyme-linked immunosorbent assay for quantitative detection of tumour necrosis factor- alpha: human TNF-alpha ELISA BM S223/4TEUCE, Bender Med System Inc, Burlinghane CA 94010).

IFN-gamma = IFN-gamma production by PBMC from healthy volunteers, CBA; settings: 24 hours, mean ± standard error, n=13
Experimental: CBA protocol was followed according to the manufacturer's instructions. The election of microparticles was performed following the summary of Figure 1.
The acquisition on samples was performed with the BD FACS Array Bioanalyser System (FACSArray, Becton Dickinson, San José, CA, USA) and the analysis of the results was completed with the software FCAP Array (Becton Dickinson) in a PC computer.
Briefly, the experimental protocol consisted of a plate pre-washing out with Wash Buffer. After decantation, the mixture of capture microparticles was re-suspended in the vortex. Standards and samples were added in the adequate dilution. After permanent stirring incubation during 1 h, the PE detection reagent was added and incubated again during 2h at room temperature. After a washing-out, the acquisition was performed in the flow cytometer. Table 3. -Kit CBA Human Soluble Protein Multiplex Flex Set System.
PBMC (5 x 10^4 cells per well) from 13 healthy volunteers were cultured in duplicate in 200 µl of complete medium supplemented with the highest solvent concentration (10^-6 M), and 10^-6 M, 10^-7 M and 10^-8 M of compound 12 in the presence or absence, either of LPS (10 µg/ml), or anti-CD3 (12.5 ng/ml) + anti-CD28 (1/3x10^5), during 24 hours. Culture supernatants were frozen at -20°C and the concentration of IFN-gamma was quantified by BD FACS Array Bioanalyser by using CBA Flex Set (Becton Dickinson), specific to determine the concentration of IFN-gamma, following the manufacturer instructions.

CD62L = experiment: Shedding of CD62L in lymphocytes of PBMC, flow cytometry; settings: lymphocytes of PBMC from healthy volunteers, mean ± standard error, n=10, vehicle 112.68±13.57
Experimental: Direct immuno-fluorescence techniques of one colour with monoclonal antibodies phycoerythrin-labeled (PE) was used. PE is a fluorescent substance excitable with a 488 nm laser, which emits at 570 nm, and it is detectable and easily distinguishable by a flow cytometer. By using the antibody described in Table 1, a direct labelling was performed: PBMC labelling: the process consisted in a labelling using 96 well V bottom plates. In each well, 5 x 10^4 cells are located, and afterwards centrifugated at 400 xg during 5 minutes. After washing-out, cells are re-suspended and 5 µl of the corresponding monoclonal antibody are added. Cells are again re-suspended and the plate is incubated in darkness, during 20 minutes, at 4°C. Subsequently, 150 µl PBS are added and two wash-outs are performed. Finally, it is re-suspended in 150 µl PBS and collected in a cytometer tube, adding PBS up to a final volume of 0.3 ml. For the counting, a FACSCalibur flow cytometer equipped with argon laser tuned at 488 nm was used in order to induce phycoerythrin fluorescence. The equipment, apart from the fluorescence channels, also provided information about the size (FSC) and cellular complexity (SSC). […]
Table 14. -Mean fluorescence intensity of surface CD62L expression in lymphocytes. p values correspond to data with respect to the vehicle for each experimental condition.

## Cc1nc(OC2CCCC2)c(-c2ccc(S(C)(=O)=O)cc2)s1 [compound 12, 4-cyclopentyloxy-5-(4-methylsulfonyl-phenyl)-2-methylthiazole]
TNF-alpha; LPS (10µg/ml), 10^-6 M, vehicle 3084.63±450.00, p 0.005
  TNF-alpha production in PMBC from healthy volunteers: 1064.91±52.82 (0.005) pg/mL
TNF-alpha; LPS (10µg/ml), 10^-7 M, vehicle 3084.63±450.00, p 0.028
  TNF-alpha production in PMBC from healthy volunteers: 1938.00±487.74 (0.028) pg/mL
TNF-alpha; medium (no stimulus), 10^-6 M, vehicle 1118.00±800.00, p 0.009
  TNF-alpha production in PMBC from healthy volunteers: 551.60±324.17 (0.009) pg/mL
TNF-alpha; medium (no stimulus), 10^-7 M, vehicle 1118.00±800.00, p 0.114
  TNF-alpha production in PMBC from healthy volunteers: 1121.00±100.48 (0.114) pg/mL
IFN-gamma; LPS (10µg/ml), 10^-6 M, vehicle 860.42±105.00, p 0.011
  IFN-gamma production in PMBC from healthy volunteers: 649.61±120.00 (0.011) pg/mL
IFN-gamma; LPS (10µg/ml), 10^-7 M, vehicle 860.42±105.00, p 0.552
  IFN-gamma production in PMBC from healthy volunteers: 919.53±130.00 (0.552) pg/mL
IFN-gamma; LPS (10µg/ml), 10^-8 M, vehicle 860.42±105.00, p 0.382
  IFN-gamma production in PMBC from healthy volunteers: 1049.85±230.00 (0.382) pg/mL
IFN-gamma; anti-CD3 (12.5 ng/ml) + anti-CD28 (1/3x10^5), 10^-6 M, vehicle 11802.22±1300.00, p 0.019
  IFN-gamma production in PMBC from healthy volunteers: 7927.17±1003.00 (0.019) pg/mL
IFN-gamma; anti-CD3 (12.5 ng/ml) + anti-CD28 (1/3x10^5), 10^-7 M, vehicle 11802.22±1300.00, p 0.917
  IFN-gamma production in PMBC from healthy volunteers: 11552.08±1600.00 (0.917) pg/mL
IFN-gamma; anti-CD3 (12.5 ng/ml) + anti-CD28 (1/3x10^5), 10^-8 M, vehicle 11802.22±1300.00, p 0.196
  IFN-gamma production in PMBC from healthy volunteers: 10254.66±1500.00 (0.196) pg/mL
IFN-gamma; medium, 10^-6 M, vehicle 283.78±90.00, p 0.279
  IFN-gamma production in PMBC from healthy volunteers: 189.72±40.00 (0.279) pg/mL
IFN-gamma; medium, 10^-7 M, vehicle 283.78±90.00, p 0.807
  IFN-gamma production in PMBC from healthy volunteers: 296.28±90.00 (0.807) pg/mL
IFN-gamma; medium, 10^-8 M, vehicle 283.78±90.00, p 0.807
  IFN-gamma production in PMBC from healthy volunteers: 279.16±60.00 (0.807) pg/mL
CD62L; 10^-6 M, p 0.47 as printed
  Mean fluorescence intensity of surface CD62L expression in lymphocytes (MFI): 90.01±8.93 (0.47)
CD62L; 10^-7 M, p 0.333
  Mean fluorescence intensity of surface CD62L expression in lymphocytes (MFI): 116.90±11.02 (0.333)
